Test results taken from US11498909B2, “Compound acting as antibiotics” (KBP BIOSCIENCES CO., LTD., priority 2018, dated 2022).
Values after ≈ are worked out from the molar mass of the structure shown. Read-outs that look alike come from different tables or passages of the source.

Experiments:
[1] = test system: polymyxin-resistant mcr-1 positive Enterobacteriaceae; experiment: In vitro antibacterial effect on polymyxin-resistant mcr-1 positive Enterobacteriaceae, agar dilution MIC (Experiment 2); type: cell-based, Escherichia coli; conditions: for MIC50 / MIC90: Escherichia coli; for MIC50: read-out: MIC50 Value, polymyxin-resistant mcr-1 positive Escherichia coli, agar dilution; for MIC90: read-out: MIC90 Value, polymyxin-resistant mcr-1 positive Escherichia coli, agar dilution
Description: Tested samples: the compounds of the present invention, prepared according to the methods of the preparation examples;
Polymyxin E sulphate, Ampicillin, Cefotaxime, Gentamicin, Ciprofloxacin, Tetracycline, and Bactrim were all commercial products, the following experiments were carried out according to the content of an effective ingredient in each commercial product.
Tested strains: Escherichia coli carrying mcr-1 gene isolated from animals and Escherichia coli ATCC25922, a quality control strain, were provided by South China Agricultural University.
With reference to the agar dilution method in CLSI, the MIC value of the tested drugs to the polymyxin resistant mcr-1 positive Escherichia coli were determined.
Preparation of drug-containing agar plates: a drug solution with the highest concentration was prepared for each compound; the drug solution with the highest concentration was subjected to the double dilution; for each of dilution gradient, 1 mL (20×drug working solution) of the drug solution was added to 19 mL MH agar at 45-50° C.; immediately after addition, the agar and the drug solution were uniformly mixed to give a drug-containing agar plate with final concentrations of […], and the plate was solidified for later use; and in the meanwhile, a growth control group was arranged.
Inoculum preparation and culture: the strains stored at −80° C. were rejuvenated and formulated with broth so that the turbidity reached or exceeded 0.5 #McFarland unit; a 96-well plate was used as the inoculation tank, and the bacterial solution was diluted with sodium chloride injection so that the content of bacteria inoculated on the agar was 10^4 CFU/point. A multi-point inoculation instrument was used to inoculate the bacterial solution to the surface of the labeled drug-containing agar. After the water in the inoculation point was completely absorbed by the agar, the plate was placed upside down in a 37° C. constant-temperature incubator and incubated for 16-20 hours.

[2] = Pharmacokinetics (PK) determination in SD rats (Experiment 4); type: in vivo; conditions: plasma; for AUC(0-t) / AUC(0-inf): Sprague-Dawley (SD), rat, iv; for AUC(0-inf): read-out: AUCINF_obs
Description: The compound of the present invention, self-prepared and dissolved in a suitable solvent.
Instrument and equipment: API4000 LC-MS/MS
Chromatographic column: Waters XBridge C18(2.1×50 mm, […])
Rat blood collection: Animals were fixed. The animal's tail was heated with a water bathtub 10 minutes before each time point. About 200 μL of the blood was collected through the caudal vein. After the blood collection, the blood was placed in an anticoagulation tube containing heparin sodium. The blood samples were centrifuged at 8000 rpm for 6 minutes at 4° C. to obtain plasma samples. The plasma must be prepared within 30 minutes after the blood collection. The plasma was stored in a refrigerator at −80° C. before the test.
(1) Test samples were removed from the refrigerator (−80° C.), naturally thawed at room temperature, and then vortexed for 5 minutes;
(2) 20 μL sample was precisely pipetted to a 1.5 mL centrifuge tube;
(3) 200 μL of the internal standard solution was added;
(4) The mixture was vortexed for 5 minutes and centrifuged for 5 minutes (12000 revolutions per minute);
(5) 100 μL of the supernate was precisely pipetted, 100 μL of water was added, the mixture was vortexed for 5 minutes, and the sample was sent to LC-MS/MS for analysis.
The results of the concentrations of the test samples (plasma samples) were output with Analyst 1.6.1 of AB Corporation. The meaning value, the standard deviation, the coefficient of variation, and other parameters (not necessary to calculate the parameter that can be directly output from Analyst 1.6.1) were calculated with Microsoft Excel, and the PK parameter is calculated with Pharsight Phoenix 6.1 software.

Pseudomonas aeruginosa = experiment: In vitro antibacterial activity, agar dilution MIC (Experiment 1); type: cell-based; conditions: agar dilution (Table 3)
Description: (§1) Tested strains: all the clinically separated strains below were purchased from public facilities.
(§2) Escherichia coli ATCC25922, Pseudomonas aeruginosa ATCC27853, Klebsiella pneumoniae ATCC700603, and the like.
(§3) Tested Samples: Imipenem, Ceftazidime: Commercial Products, the Following Experiments were Carried Out According to the Content of an Effective Ingredient in Each Commercial Product;
(§4) The compounds of the present invention, their chemical names, and preparation methods are shown in the preparation example of each compound.
(§5) Experiment method: Agar dilution method, refer to National Committee for Clinical Laboratory Standards. 2006. Methods for Dilution Antimicrobial Susceptibility Tests for Bacteria That Grow Aerobically; Approved Standard—Seventh Edition M7-A7, Vol 26, No. 2, 2006, to determine the MIC of the compound. MIC represents the minimum inhibitory concentration.

Klebsiella pneumoniae = experiment: as above; type: cell-based; conditions: agar dilution
Description: as §1, §2, §3, §4, §5

[3] = polymyxin-resistant mcr-1 positive Escherichia coli, agar dilution

Cl_obs ([2]; IV 2 mg/kg) [mL/min/kg]	Vz_obs ([2]; IV 2 mg/kg) [L/kg]	t1/2z ([2]; IV 2 mg/kg) [min]	λ_z ([2]; IV 2 mg/kg) [h⁻¹]	AUC(0-t) ([2]; 2 mg/kg) [ng·h/mL]	AUC(0-inf) ([2]; 2 mg/kg) [ng·h/mL]	MIC50 (Pseudomonas aeruginosa; read-out: MIC50) [µg/mL]	MIC90 (Pseudomonas aeruginosa; read-out: MIC90) [µg/mL]	Compound	also measured
								Gentamicin	MIC50 Value [1, 3]: 4 µg/mL; MIC90 Value [1, 3]: 64 µg/mL
78.5 ± 5.5	17.6 ± 4.22	158 ± 45.6	0.28 ± 0.08	402 ± 21.6	426 ± 28.5	1 (≈ 2.17 µM)		Cn1nc(CO)cc1-c1ccc(C#Cc2ccc(C(=O)N[C@H](C(=O)NO)C(C)(C)N)cc2)cc1 [Compound 37, (S)—N-(3-amino-1-(hydroxyamino)-3-methyl-1-oxobutan-2-yl)-4-((4-(3-(hydroxymethyl)-1-methyl-1H-pyrazol-5-yl)phenyl)ethynyl)benzamide]	
						1 (≈ 2.13 µM)	4 (≈ 8.52 µM)	C[C@@H](O)[C@H](NC(=O)c1ccc(C#CC#Cc2ccc(CNCCOCCO)o2)cc1)C(=O)NO [Compound 18, N-((2S,3R)-3-hydroxy-1-(hydroxyamino)-1-oxobutan-2-yl)-4-((5-((2-(2-hydroxyethoxy)ethylamino)methyl)furan-2-yl)buta-1,3-diynyl)benzamide]	MIC50 (Klebsiella pneumoniae; read-out: MIC50): 2 µg/mL (≈ 4.26 µM); MIC90 (Klebsiella pneumoniae; read-out: MIC90): 2 µg/mL (≈ 4.26 µM)
24.2 ± 4.83	0.33 ± 0.07	9.6 ± 0.6	4.38 ± 0.25	1400 ± 256	1420 ± 255	1 (≈ 2.13 µM)	4 (≈ 8.5 µM)	C[C@@H](O)[C@H](NC(=O)c1ccc(C#CC#Cc2ccc(COCCOCCO)o2)cc1)C(=O)NO [Compound 21, N-((2S,3R)-3-hydroxy-1-(hydroxyamino)-1-oxobutan-2-yl)-4-((5-((2-(2-hydroxyethoxy)ethoxy)methyl)furan-2-yl)buta-1,3-diynyl)benzamide]	
								CC1(C)S[C@@H]2[C@H](NC(=O)[C@H](N)c3ccccc3)C(=O)N2[C@H]1C(=O)O [Ampicillin]	MIC50 [1]: > 128 µg/mL; MIC90 [1]: > 128 µg/mL
								CN(C)[C@@H]1C(O)=C(C(N)=O)C(=O)[C@@]2(O)C(O)=C3C(=O)c4c(O)cccc4[C@@](C)(O)[C@H]3C[C@@H]12 [Tetracycline]	MIC50 [1]: 32 µg/mL (≈ 72 µM); MIC90 [1]: 64 µg/mL (≈ 144 µM)
25.2 ± 4.5	1.57 ± 0.28	44.4 ± 13.2	0.99 ± 0.29	1330 ± 108	1350 ± 222	0.5 (≈ 1.26 µM)	2 (≈ 5.06 µM)	CNCc1ccc(C#CC#Cc2ccc(C(=O)N[C@H](C(=O)NO)[C@@H](C)O)cc2)o1 [Compound 15, N-((2S,3R)-3-hydroxy-1-(hydroxyamino)-1-oxobutan-2-yl)-4-((5-((methylamino)methyl)furan-2-yl)buta-1,3-diynyl)benzamide]	
								C[C@H](O)[C@H](NC(=O)c1ccc(C#CC#Cc2ccc(CO)o2)cc1)C(=O)NO [Compound 10, N-((2S,3S)-3-hydroxy-1-(hydroxyamino)-1-oxobutan-2-yl)-4-((5-(hydroxymethyl)furan-2-yl)buta-1,3-diynyl)benzamide]	AUCINF_obs ([2]; IV 2 mg/kg, 2 mg/kg): 4902 ± 532 ng·h/mL; AUClast ([2]; IV 2 mg/kg, 2 mg/kg): 4891 ± 533 ng·h/mL; Cl_obs ([2]; IV 2 mg/kg, 2 mg/kg): 17.2 ± 1.83 mL/min/kg; Vz_obs ([2]; IV 2 mg/kg, 2 mg/kg): 1.03 ± 0.11 L/kg; t1/2z ([2]; IV 2 mg/kg, 2 mg/kg): 44.4 ± 9.6 min; λ_z ([2]; IV 2 mg/kg, 2 mg/kg): 0.97 ± 0.23 h⁻¹; MIC50 (Pseudomonas aeruginosa): 0.125 µg/mL (≈ 0.327 µM); MIC90 (Pseudomonas aeruginosa): 1 µg/mL (≈ 2.62 µM)
12 ± 0.67	0.47 ± 0.16	27 ± 8.4	1.67 ± 0.58	2780 ± 130	2790 ± 136	0.5 (≈ 1.26 µM)	2 (≈ 5.05 µM)	Cc1cc(C#CC#Cc2ccc(C(=O)N[C@H](C(=O)NO)[C@@H](C)O)cc2)oc1CO [Compound 16, N-((2S,3R)-3-hydroxy-1-(hydroxyamino)-1-oxobutan-2-yl)-4-((5-(hydroxymethyl)-4-methylfuran-2-yl)buta-1,3-diynyl)benzamide]	
